According to patent publication US20160355465A1, “NOVEL MODIFIED CURCUMINS AND THEIR USES” (THE RESEARCH FOUNDATION OF STATE UNIVERSITY OF NEW YORK, priority 2011, published 2016):
“Also recorded” adds a separate entry of the source.

Tests used:
peritoneal macrophages = assay: cell migration (chemotaxis) assay of peritoneal macrophages; assay type: in vivo, rat; settings: diabetic rats, oral 30 mg/kg daily, 21 days
Method: Adult male Sprague-Dawley rats (body weight 300-350 g) were injected through the tail vein with either 0.9% saline (non-diabetic control) or with the same solution containing streptozotocin (70 mg/kg body weight) to induce diabetes. Non-diabetic rats served as normal controls. The diabetic rats were distributed into 2 experimental groups (3 rats per group). Urine glucose levels were measured weekly with Tes-Tape (Eli Lilly Inc.). One group of rats was treated by oral gavage of Compound 4 (30 mg/kg body weight) daily for 21 days; the Compound 4 was suspended in 2% carboxymethyl cellulose and polytron/homogenized. The normal & diabetic vehicle-treated (control) groups were oral gavaged with vehicle alone daily.
Rat peritoneal macrophages were harvested with 10 ml RPMI 4 days after intraperitoneal injection of 10 ml of thioglycolate (3% wt/vol). Macrophages were then purified by density gradient centrifugation (lymphoprep) and cell numbers were counted in a hemocytometer. The cells were then tested in a cell migration assay (Cell BioLabs, Inc, CytoSelect 96-well with 5 um fluorometric format) using conditioned medium containing inflammatory mediators including MCP-1 from LPS-macrophages as a chemoattractant. The macrophages from different groups of rats were also plated onto 24 well-plates with and without p.g.LPS challenge for 24 hours in 37° C., 5% CO2. […]

MMP-2 = target: T1, MMP-2 (Homo sapiens, UniProt P08253); assay: fluorimetric assay of MMP activity; assay type: biochemical; settings: synthetic fluorescent peptide substrate Mca-Lys-Pro-Leu-Gly-Leu-Dpa-Ala-Arg-NH2; read-out: IC50 MMP-2
T1 sequence (P08253 110-660): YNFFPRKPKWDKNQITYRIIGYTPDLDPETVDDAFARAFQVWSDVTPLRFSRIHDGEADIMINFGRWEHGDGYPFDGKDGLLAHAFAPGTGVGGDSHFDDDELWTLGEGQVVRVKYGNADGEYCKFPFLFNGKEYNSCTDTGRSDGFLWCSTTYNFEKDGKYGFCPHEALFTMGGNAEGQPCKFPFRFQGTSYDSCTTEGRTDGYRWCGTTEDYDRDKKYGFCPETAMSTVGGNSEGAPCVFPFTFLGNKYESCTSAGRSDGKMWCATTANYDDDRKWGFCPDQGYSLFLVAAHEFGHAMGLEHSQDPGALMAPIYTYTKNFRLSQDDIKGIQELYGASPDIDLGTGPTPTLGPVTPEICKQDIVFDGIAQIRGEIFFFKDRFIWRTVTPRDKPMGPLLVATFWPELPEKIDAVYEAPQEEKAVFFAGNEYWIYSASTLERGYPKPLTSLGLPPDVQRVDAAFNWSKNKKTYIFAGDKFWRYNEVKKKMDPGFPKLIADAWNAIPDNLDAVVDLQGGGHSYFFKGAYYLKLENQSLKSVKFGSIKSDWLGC

[1] = tested on: MMPs 1, 2, 3, 7, 8, 9, 12, 13 and 14; assay: activity against a battery of MMPs (summary in words); assay type: biochemical, human
MMP-12 = MMP-12 (Homo sapiens, UniProt P39900); assay: fluorimetric assay of MMP activity; assay type: biochemical; settings: synthetic fluorescent peptide substrate Mca-Lys-Pro-Leu-Gly-Leu-Dpa-Ala-Arg-NH2
[2] = severity of hyperglycemia (blood glucose, HbA1c) in diabetic rats; assay type: in vivo, rat
Method: The following five experimental groups (n=3 rats per group) were established: Non-diabetic control rats (NDC) treated by daily application of white petrolatum jelly (“vehicle”) for 7 days, diabetic rats (D group) treated daily with vehicle alone; diabetics treated by daily topical application of either a 1% (D+1%) or a 3% (D+3%) suspension of Compound 4 in the vehicle; and diabetics treated systemically by daily oral intubation of a 1 ml suspension of Compound 4 (in carboxymethylcellulose) at a dose of 30 mg/kg over the 7-day treatment protocol (D+30 mg/kg). At the end of this time period, the circular wounds were clinically assessed by measuring diameter of the wound in millimeters, blood samples were collected, the rats were sacrificed, and skin samples collected for histological/histochemical, and biochemical assessment as described below. • 1) On day 7 after inducing wound healing, the animals were anesthetized and blood samples collected for blood glucose (one Touch Ultra Glucometer; Johnson & Johnson, New Brunswick, N.J.) and Hemoglobin A1c (A1c Now+; Bayer Health Care, Sunnyvale, Calif.) measurements. • 2) Photographs were taken for clinical observations to assess wound closure. […]

[3] = toxicity / tolerability in diabetic rats; assay type: in vivo
Method: The following five experimental groups (n=3 rats per group) were established: Non-diabetic control rats (NDC) treated by daily application of white petrolatum jelly (“vehicle”) for 7 days, diabetic rats (D group) treated daily with vehicle alone; diabetics treated by daily topical application of either a 1% (D+1%) or a 3% (D+3%) suspension of Compound 4 in the vehicle; and diabetics treated systemically by daily oral intubation of a 1 ml suspension of Compound 4 (in carboxymethylcellulose) at a dose of 30 mg/kg over the 7-day treatment protocol (D+30 mg/kg). At the end of this time period, the circular wounds were clinically assessed by measuring diameter of the wound in millimeters, blood samples were collected, the rats were sacrificed, and skin samples collected for histological/histochemical, and biochemical assessment as described below. • 1) On day 7 after inducing wound healing, the animals were anesthetized and blood samples collected for blood glucose (one Touch Ultra Glucometer; Johnson & Johnson, New Brunswick, N.J.) and Hemoglobin A1c (A1c Now+; Bayer Health Care, Sunnyvale, Calif.) measurements. • 2) Photographs were taken for clinical observations to assess wound closure. The % reduction of the wound surface was calculated by measuring the diameter (in millimeters) of each wound before and after the treatment protocol. • 3) Wound tissues on day 7 were excised from 3 sites per rat and pooled for biochemical analysis. […] The supernates were then dialyzed against the Tris-HCl, NaCl, CaCl2 buffer, and the proteinases partially purified by ammonium sulfate precipitation and examined for levels of MMP-2 (72 kD gelatinse) and MMP-9 (92 kD gelatinase) by gelatin zymography using denatured type I collagen (gelatin) as the substrate (6). • 4) The remaining wounds were assessed histologically & histochemically by Dr. Steve McClain (McClain Labs, Smithtown, N.Y.) as follows: Biopsies of each wound site were taken and included both the wound tissue and surrounding non-wounded tissue. […]

MMP-7 = target: T2, MMP-7 (Homo sapiens, UniProt P09237); assay: fluorimetric assay of MMP activity; assay type: biochemical; settings: synthetic fluorescent peptide substrate Mca-Lys-Pro-Leu-Gly-Leu-Dpa-Ala-Arg-NH2
T2 sequence (P09237 95-267): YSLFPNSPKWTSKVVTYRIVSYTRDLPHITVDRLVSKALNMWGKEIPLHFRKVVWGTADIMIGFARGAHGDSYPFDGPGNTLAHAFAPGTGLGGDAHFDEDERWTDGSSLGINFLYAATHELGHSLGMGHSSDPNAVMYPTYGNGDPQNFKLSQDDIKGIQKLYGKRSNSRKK

MMP-12, sequence (P39900 106-470): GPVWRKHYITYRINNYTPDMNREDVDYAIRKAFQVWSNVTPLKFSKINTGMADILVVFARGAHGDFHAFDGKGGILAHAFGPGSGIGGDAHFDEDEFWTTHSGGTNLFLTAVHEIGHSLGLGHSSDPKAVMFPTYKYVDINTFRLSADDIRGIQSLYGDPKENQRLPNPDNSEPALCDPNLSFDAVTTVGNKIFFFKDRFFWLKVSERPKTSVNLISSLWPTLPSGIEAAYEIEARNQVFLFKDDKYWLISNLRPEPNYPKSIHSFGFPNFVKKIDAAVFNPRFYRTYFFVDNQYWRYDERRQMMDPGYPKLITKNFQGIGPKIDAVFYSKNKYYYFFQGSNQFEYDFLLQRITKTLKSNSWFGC

O=C(/C=C/c1ccc(O)cc1)C(C(=O)/C=C/c1ccc(O)cc1)C(=O)Nc1ccccc1 [Compound 4, 1,7-Bis(4-hydroxyphenyl)-4-N-phenylaminocarbonylhepta-1E, 6E-dien-3,5-dione]
macrophage chemotactic activity (peritoneal macrophages): counteracted the suppression of macrophage chemotactic activity | IC50 (MMP-2): 4.8 ± 0.5 µM | anti-MMP activity (in words) [1]: highly active | IC50 (MMP-12): 2 ± 0.4 µM | effect on severity of hyperglycemia ([2]; oral 30 mg/kg daily, 21 days): did not affect the severity of hyperglycemia | effect on severity of hyperglycemia (blood glucose, HbA1c) ([2]; topical 1% or 3% or oral 30 mg/kg, 7 days): none of the topical or systemic treatments with Compound 4 demonstrated any effect | toxic effects ([3]; 30 mg/kg body weight, diabetic rats): virtually no toxic effects | tolerability ([3]; topical (e.g. 1%) or systemic administration): well tolerated; also recorded: well tolerated and not toxic | IC50 (MMP-7): 5 ± 0.7 µM
